In PubChem BioAssay AID743299 (The Scripps Research Institute Molecular Screening Center, 2014):

Molecular target: methionyl-tRNA synthetase (Trypanosoma brucei brucei)
Assay: T. brucei MetRS inhibitors, orthogonal readout, late-stage follow-up, orthogonal assay for T. brucei MetRS inhibitor project, biochemical, fluorescence polarization, dose response, round 2 (AID 743299)
Conditions: recombinant T. brucei MetRS

## CCN(CC)C(=O)C(=O)c1cn(CC(=O)Nc2cccc(C(F)(F)F)c2)c2ccccc12
  IC50: 0.181 µM
